Converted amounts (≈) assume the structure as drawn. Blank lines part the entries; values can stand above or below the compound they belong to.
Key:
Format in all cases: physicochemical
[1] = Aqueous solubility of the drugs
Description: It will be recognized that aqueous solubility of many drugs is pH dependent; in the case of such drugs the solubility of interest herein is at a physiologically relevant pH, for example a pH of about 1 to about 8.

[2] = Solubility of ABT-102 in various carriers (Example 14); details: thermodynamic from solid, room temperature, read-out: Solubility (S)
Method: An accurately weighed quantity of about 1 g of each excipient was weighed into three glass vials. Semisolid excipients were warmed in a water bath at around 50-60° C. until completely melted before weighing. An accurately weighed quantity of ABT-102 of about 25 mg, 50 mg and 100 mg was weighed into each of the three vials containing the same excipients. The vials were closed tightly and mixed for around 30 seconds by vortexing and then sonicating in a warm water bath. The vials were visually observed for dissolution after 5-6 hours. Solubility is reported in Table 11 below based on volume of carrier providing a clear solution and volume of carrier where solid was present. All solubility values were determined at room temperature.

[3] = Screening of carriers for solubility of ABT-869 (Example 1); details: thermodynamic from solid, room temperature, read-out: Solubility (S)
Method: Approximately 20 mg of ABT-869 was weighed and added to a 0.3 ml vial. A test carrier (100 μl) was then added by pipette to the vial. The vial was three times alternately vortexed for about 30 seconds and sonicated for about 1 minute to ensure adequate wetting and dispersion of the ABT-869. The vial was wrapped in aluminum foil, placed in a Labquake™ rotator and rotated for a minimum of 24 hours. […] If solid was still present, carrier was added until all solid had dissolved and the resulting solution was clear. Approximate solubility is reported in Table 1 below as a range based on volume of carrier providing a clear solution and volume of carrier where solid was present. All solubility values were determined at room temperature.

[4] = Solubility of ABT-869 in carriers comprising Phosal 53 MCT (Example 2, HPLC); details: 25° C.
Method: Solubility of ABT-869 was measured in various carriers comprising Phosal 53 MCT™. Approximately 100-400 mg of ABT-869 was weighed and added to a 4 ml glass vial, to which 2 ml of a test carrier was added. The vial was then vortexed and sonicated for 10 minutes. The vials were wrapped with aluminum foil, placed in a water bath at 25° C. and agitated for 2 days. The contents of the vials were then filtered and the filtrate diluted 25× with mobile phase for HPLC analysis.

[5] = Solubility of isotretinoin in Phosal 53 MCT and typical solvents (Example 11)
[6] = Solubility of paricalcitol in various carriers (Example 13)

- solubility ([1]; water, pH 1.1, simulated gastric fluid, read-out: solubility in water): ~0.102 µg/mL (≈ 0.000293 mM)
- solubility ([1]; water, pH 6.8, aqueous buffer, read-out: solubility in water): ~0.0573 µg/mL (≈ 0.000164 mM)
- solubility ([2]; oil or lipid, carrier Gelucire 44/14): 25 to 50 mg/mL (≈ 71.7 to 143 mM)
- solubility ([2]; oil or lipid, carrier Phosal 50 PG): 50 to 100 mg/mL (≈ 143 to 287 mM)
- solubility ([2]; oil or lipid, carrier Phosal 53 MCT): 50 to 100 mg/mL (≈ 143 to 287 mM)
- solubility ([2]; oil or lipid, carrier Vit.E TPGS): < 200 mg/mL
- solubility ([2]; organic solvent or mixture, carrier PEG 400): 71 mg/mL (≈ 204 mM)
- solubility ([2]; organic solvent or mixture, carrier VP Dimer (VPD)): 160 mg/mL (≈ 459 mM)
Compound: CC(C)(C)c1ccc2c(c1)CC[C@H]2NC(=O)Nc1cccc2[nH]ncc12 [ABT-102]

- solubility ([1]; pH 1, simulated gastric fluid): ~1.7 µg/mL (≈ 0.00453 mM)
- solubility ([1]; pH 5, aqueous buffer): ~0.027 µg/mL (≈ 7.19e-05 mM)
- solubility ([3]; oil or lipid, carrier 10% ethanol, 90% Phosal 50 PG): 50 to 67 mg/mL (≈ 133 to 178 mM)
- solubility ([3]; oil or lipid, carrier 10% ethanol, 90% Phosal 53 MCT): 67 to 100 mg/mL (≈ 178 to 266 mM)
- solubility ([3]; oil or lipid, carrier 100% Captex 355 EP): < 50 mg/mL
- solubility ([3]; organic solvent or mixture, carrier 10% ethanol, 20% polysorbate 80, 70% PEG 400): > 200 mg/mL
- solubility ([3]; organic solvent or mixture, carrier 10% ethanol, 30% Phosal 50 PG, 60% PEG 400): > 200 mg/mL
- solubility ([3]; organic solvent or mixture, carrier 10% ethanol, 90% PEG 400): > 200 mg/mL
- solubility ([3]; organic solvent or mixture, carrier 100% PEG 400): > 200 mg/mL
- solubility ([4]; carrier 5% ethanol, 95% Phosal 53 MCT): 115 mg/g
- solubility ([4]; carrier 10% PEG 400, 0.5% Tween 80, 4.5% ethanol, 85% Phosal 53 MCT): >122 mg/g
- solubility ([4]; carrier 10% PEG 400, 5% ethanol, 85% Phosal 53 MCT): >123 mg/g
- solubility ([4]; carrier 10% PEG 400, 90% Phosal 53 MCT): 139 mg/g
- solubility ([4]; carrier 10% ethanol, 90% Phosal 53 MCT): 97 mg/g
- solubility ([4]; carrier 20% PEG 400, 80% Phosal 53 MCT): 166 mg/g
- solubility ([4]; carrier 30% PEG 400, 70% Phosal 53 MCT): 185 mg/g
- solubility ([4]; carrier 40% PEG 400, 60% Phosal 53 MCT): 199 mg/g
- solubility ([4]; carrier 50% PEG 400, 50% Phosal 53 MCT): 221 mg/g
- solubility ([4]; carrier 100% Phosal 53 MCT): 95 mg/g
Compound: Cc1ccc(F)c(NC(=O)Nc2ccc(-c3cccc4[nH]nc(N)c34)cc2)c1 [ABT-869, N-[4-(3-amino-1H-indazol-4-yl)phenyl]-N′-(2-fluoro-5-methylphenyl)urea]

- solubility [1]: ~5 µg/mL (≈ 0.0166 mM)
- solubility limit ([5]; in Phosal 53 MCT at 25° C.): 72 to 78 mg/g
- solubility ([5]; in caprylic/capric triglycerides): 5.1 mg/g
- solubility ([5]; in ethanol): 16.7 mg/g
- solubility ([5]; in oleic acid): 19.1 mg/g
- solubility ([5]; in soybean oil): 2.4 mg/g
Compound: CC1=C(/C=C/C(C)=C/C=C/C(C)=C\C(=O)O)C(C)(C)CCC1 [Isotretinoin]

- solubility ([1]; pH 7.4, aqueous buffer): 0.0115 µg/mL (≈ 2.76e-05 mM)
- Solubility (mean of 2 tests) ([6]; carrier 10% hydroxypropyl-β-cyclodextrin in PEG): 734 µg/g
- Solubility (mean of 2 tests) ([6]; carrier Neobee M5 + 0.5% ethanol): 194 µg/g
- Solubility (mean of 2 tests) ([6]; carrier PEG 400): 1,085 μg/g
- Solubility (mean of 2 tests) ([6]; carrier Phosal 50 SA): 752 µg/g
- Solubility (mean of 2 tests) ([6]; carrier Phosal 53 MCT): 1,459 μg/g
- Solubility (mean of 2 tests) ([6]; carrier castor oil): 344 µg/g
- Solubility (mean of 2 tests) ([6]; carrier glyceryl monooleate): 1,067 μg/g
- Solubility (mean of 2 tests) ([6]; carrier medium chain monoglycerides (Capmul MCM)): 5,057 μg/g
- Solubility (mean of 2 tests) ([6]; carrier medium chain triglycerides (Neobee M5)): 165 µg/g
- Solubility (mean of 2 tests) ([6]; carrier oleic acid): 819 µg/g
- Solubility (mean of 2 tests) ([6]; carrier polysorbate 80 (Tween 80)): 1,353 μg/g
- Solubility (mean of 2 tests) ([6]; carrier propylene glycol): 5,791 μg/g
- Solubility (mean of 2 tests) ([6]; carrier triethyl citrate): 453 µg/g
Compound: C[C@H](/C=C/[C@H](C)C(C)(C)O)[C@H]1CC[C@H]2/C(=C/C=C3C[C@@H](O)C[C@H](O)C3)CCC[C@]12C [paricalcitol]

Reference: patent US20070104780A1, “Formulation comprising a drug of low water solubility and method of use thereof” (priority 2005, published 2007)
